Results published in article PMC8655237 (Journal of Advanced Research, 2021).
Where a SMILES comes first, the peptide text is derived from it. [ ]: non-standard residue; d: D form. The star is where a group is joined. Sta = CC(C)C[C@H](N)[C@@H](O)CC(=O)O; Isovaleryl = CC(C)CC(=O)*

Legend:
hyaluronidase (HYAL) [1] = test: Hyaluronidase assay, cell-based; design: species or system human
hyaluronidase (HYAL) [2] = test: Hyaluronidase assay, cell-free; type: biochemical; conditions: read-out: IC50 HYAL; cell free (In vitro)
HYAL mRNA = test: Real-time qPCR expression analysis; type: cell-based, human; conditions: GAPDH internal control
CAT D mRNA = test: Real-time qPCR expression analysis; type: cell-based, human; conditions: GAPDH internal control
DHFR mRNA = test: Real-time qPCR expression analysis; type: cell-based, human; conditions: GAPDH internal control
A549 [3] = test: MTT antiproliferative assay; type: cell-based; conditions: Homo sapiens, A549, 24 h, read-out: IC50 (MTT)
tubulin protein = tubulin protein (Sus scrofa, UniProt P02550+P02554); test: Tubulin polymerization assay; type: biochemical; conditions: 10 μM
A549 [4] = test: NRU antiproliferative assay; type: cell-based; conditions: Homo sapiens, A549, 24 h, read-out: IC50 (NRU)
A549 [5] = test: SRB antiproliferative assay; type: cell-based; conditions: Homo sapiens, A549, 24 h, read-out: IC50 (SRB)
A431 cells [6] = test: Mitochondrial membrane potential; type: cell-based, human; conditions: A431, flow cytometry, 1 µM
A431 [7] = test: SRB antiproliferative assay; type: cell-based; conditions: Homo sapiens, A-431, 24 h, read-out: IC50 (SRB)
PC-3 [8] = test: NRU antiproliferative assay; type: cell-based; conditions: Homo sapiens, PC-3, 24 h, read-out: IC50 (NRU)
A431 [9] = test: MTT antiproliferative assay; type: cell-based; conditions: Homo sapiens, A-431, 24 h, read-out: IC50 (MTT)
MDA-MB-231 [10] = test: NRU antiproliferative assay; type: cell-based; conditions: Homo sapiens, MDA-MB-231, 24 h, read-out: IC50 (NRU)
PC-3 [11] = test: SRB antiproliferative assay; type: cell-based; conditions: Homo sapiens, PC-3, 24 h, read-out: IC50 (SRB)
MDA-MB-231 [12] = test: MTT antiproliferative assay; type: cell-based; conditions: Homo sapiens, MDA-MB-231, 24 h, read-out: IC50 (MTT)
MDA-MB-231 [13] = test: SRB antiproliferative assay; type: cell-based; conditions: Homo sapiens, MDA-MB-231, 24 h, read-out: IC50 (SRB)
A431 [14] = test: NRU antiproliferative assay; type: cell-based; conditions: Homo sapiens, A-431, 24 h, read-out: IC50 (NRU)
PC-3 [15] = test: MTT antiproliferative assay; type: cell-based; conditions: Homo sapiens, PC-3, 24 h, read-out: IC50 (MTT)
A431 cells [16] = test: DCFH-DA ROS assay; type: cell-based, human; conditions: A431, flow cytometry, 1 µM
FaDu [17] = test: MTT antiproliferative assay; type: cell-based; conditions: Homo sapiens, 24 h, read-out: IC50 (MTT)
K562 [18] = test: SRB antiproliferative assay; type: cell-based; conditions: Homo sapiens, K562, 24 h, read-out: IC50 (SRB)
FaDu [19] = test: NRU antiproliferative assay; type: cell-based; conditions: Homo sapiens, 24 h, read-out: IC50 (NRU)
K562 [20] = test: NRU antiproliferative assay; type: cell-based; conditions: Homo sapiens, K562, 24 h, read-out: IC50 (NRU)
K562 [21] = test: MTT antiproliferative assay; type: cell-based; conditions: Homo sapiens, K562, 24 h, read-out: IC50 (MTT)
FaDu [22] = test: SRB antiproliferative assay; type: cell-based; conditions: Homo sapiens, 24 h, read-out: IC50 (SRB)
LOX-5 mRNA = test: Real-time qPCR expression analysis; type: cell-based, human; conditions: GAPDH internal control
[23] = system: Ehrlich Ascites Carcinoma (EAC); test: Ehrlich ascites carcinoma; type: in vivo, Swiss albino mice; conditions: 20 mg/kg bw i.p., day 1-9
[24] = system: Ornithine decarboxylase (ODC); test: ODC assay, cell-free; type: biochemical; conditions: read-out: IC50 ODC; cell free (In vitro)
ODC mRNA = test: Real-time qPCR expression analysis; type: cell-based, human; conditions: GAPDH internal control
[25] = MDA-MB-231, with respect to control

Sequence of tubulin protein (P02550 whole entry): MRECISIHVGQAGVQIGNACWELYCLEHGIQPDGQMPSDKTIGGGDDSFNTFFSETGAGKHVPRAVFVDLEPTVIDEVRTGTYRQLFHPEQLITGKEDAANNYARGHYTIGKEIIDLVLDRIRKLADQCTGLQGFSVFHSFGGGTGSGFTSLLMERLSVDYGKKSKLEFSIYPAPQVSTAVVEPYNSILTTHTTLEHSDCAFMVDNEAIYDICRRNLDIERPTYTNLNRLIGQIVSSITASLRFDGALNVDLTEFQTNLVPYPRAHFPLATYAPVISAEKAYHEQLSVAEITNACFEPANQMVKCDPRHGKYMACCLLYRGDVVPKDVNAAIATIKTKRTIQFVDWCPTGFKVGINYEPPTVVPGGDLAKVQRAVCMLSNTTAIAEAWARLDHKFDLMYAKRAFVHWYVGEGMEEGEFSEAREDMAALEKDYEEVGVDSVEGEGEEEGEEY
Sequence of tubulin protein (P02554 whole entry): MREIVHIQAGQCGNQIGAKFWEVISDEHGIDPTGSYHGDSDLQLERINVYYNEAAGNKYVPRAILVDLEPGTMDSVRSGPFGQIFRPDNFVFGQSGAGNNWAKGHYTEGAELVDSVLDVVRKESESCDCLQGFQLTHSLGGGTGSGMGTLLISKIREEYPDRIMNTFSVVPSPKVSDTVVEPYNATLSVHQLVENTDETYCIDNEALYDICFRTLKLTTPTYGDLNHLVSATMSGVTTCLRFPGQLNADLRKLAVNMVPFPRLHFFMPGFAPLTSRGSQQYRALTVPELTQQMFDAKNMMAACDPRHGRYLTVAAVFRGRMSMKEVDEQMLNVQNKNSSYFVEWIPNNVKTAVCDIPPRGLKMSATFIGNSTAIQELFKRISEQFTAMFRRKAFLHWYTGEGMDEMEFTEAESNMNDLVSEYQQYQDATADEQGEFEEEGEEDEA

CC(=O)N[C@@H](CS)C(=O)O [NAC, N-acetyl cysteine]
IC50 (hyaluronidase (HYAL) [1]; read-out: IC50 HYAL, A431): 8.2 ± 1.42 µM | IC50 (hyaluronidase (HYAL) [1]; read-out: IC50 HYAL, A549): 13.7 ± 4.37 µM | IC50 (hyaluronidase (HYAL) [1]; read-out: IC50 HYAL, FaDu): 7.44 ± 0.67 µM | IC50 (hyaluronidase (HYAL) [1]; read-out: IC50 HYAL, K562): 7.56 ± 0.59 µM | IC50 (hyaluronidase (HYAL) [1]; read-out: IC50 HYAL, MDA-MB-231): 14.6 ± 3.07 µM | IC50 (hyaluronidase (HYAL) [1]; read-out: IC50 HYAL, PC-3): 9.44 ± 3.13 µM | IC50 (hyaluronidase (HYAL) [2]): 5.92 ± 0.7 µM | HYAL mRNA expression level (HYAL mRNA; A431, with respect to control): 4.50 fold change | HYAL mRNA expression level (HYAL mRNA; A549, with respect to control): 4.09 fold change | HYAL mRNA expression level (HYAL mRNA; FaDu, with respect to control): 6.66 fold change | HYAL mRNA expression level (HYAL mRNA; K562, with respect to control): 8.98 fold change | HYAL mRNA expression level (HYAL mRNA; [25]): 6.87 fold change | HYAL mRNA expression level (HYAL mRNA; PC-3, with respect to control): 5.64 fold change

CC(C)CC(=O)N[C@H](C(=O)N[C@H](C(=O)N[C@@H](CC(C)C)[C@@H](O)CC(=O)N[C@@H](C)C(=O)N[C@@H](CC(C)C)[C@@H](O)CC(=O)O)C(C)C)C(C)C [PEP A, pepstatin A, reference compound] (Isovaleryl-VV[Sta]A[Sta]-OH)
CAT D mRNA expression level (CAT D mRNA; A431, with respect to control): 1.61 fold change | CAT D mRNA expression level (CAT D mRNA; A549, with respect to control): 2.77 fold change | CAT D mRNA expression level (CAT D mRNA; FaDu, with respect to control): 2.22 fold change | CAT D mRNA expression level (CAT D mRNA; K562, with respect to control): 3.12 fold change | CAT D mRNA expression level (CAT D mRNA; [25]): 1.81 fold change | CAT D mRNA expression level (CAT D mRNA; PC-3, with respect to control): 1.66 fold change

CN(Cc1cnc2nc(N)nc(N)c2n1)c1ccc(C(=O)N[C@@H](CCC(=O)O)C(=O)O)cc1 [MTX, Methotrexate]
DHFR mRNA expression level (DHFR mRNA; A431, with respect to control): 2.92 fold change | DHFR mRNA expression level (DHFR mRNA; A549, with respect to control): 2.20 fold change | DHFR mRNA expression level (DHFR mRNA; FaDu, with respect to control): 2.82 fold change | DHFR mRNA expression level (DHFR mRNA; K562, with respect to control): 2.20 fold change | DHFR mRNA expression level (DHFR mRNA; [25]): 2.59 fold change | DHFR mRNA expression level (DHFR mRNA; PC-3, with respect to control): 2.0 fold change

CC(=O)O[C@H]1C(=O)[C@@]2(C)[C@H]([C@H](OC(=O)c3ccccc3)[C@]3(O)C[C@H](OC(=O)[C@H](O)[C@@H](NC(=O)c4ccccc4)c4ccccc4)C(C)=C1C3(C)C)[C@]1(OC(C)=O)CO[C@@H]1C[C@@H]2O [Taxol, paclitaxel]
IC50 (A549 [3]): 2.1 ± 0.81 µM | effect on tubulin polymerization (tubulin protein): stabilizes the tubulin polymerization | IC50 (A549 [4]): 1.18 ± 0.13 µM | IC50 (A549 [5]): 1.15 ± 0.16 µM

COc1cccc2c1C(=O)c1c(O)c3c(c(O)c1C2=O)C[C@@](O)(C(=O)CO)C[C@@H]3O[C@H]1C[C@H](N)[C@H](O)[C@H](C)O1 [Doxorubicin, reference compound]
total of FITC mean (Rh123) (A431 cells [6]): 2735 ± 5.65 | IC50 (A431 [7]): 1.21 ± 0.03 µM | IC50 (PC-3 [8]): 1.2 ± 0.36 µM | IC50 (A431 [9]): 1.6 ± 0.09 µM | IC50 (MDA-MB-231 [10]): 3.64 ± 1.8 µM | IC50 (PC-3 [11]): 3 ± 1.16 µM | IC50 (MDA-MB-231 [12]): 1.55 ± 0.95 µM | IC50 (MDA-MB-231 [13]): 1.51 ± 0.86 µM | IC50 (A431 [14]): 1.15 ± 0.37 µM | IC50 (PC-3 [15]): 2.24 ± 1.56 µM | total mean of DCF positive cells (A431 cells [16]): 370 ± 14.14

COc1cc([C@@H]2c3cc4c(cc3[C@H](O)[C@H]3COC(=O)[C@H]23)OCO4)cc(OC)c1OC [Podophyllotoxin]
IC50 (FaDu [17]): 16.2 ± 1.04 µM | IC50 (K562 [18]): 50.26 ± 0.45 µM | IC50 (FaDu [19]): 25.3 ± 0.28 µM | effect on tubulin polymerization (tubulin protein): inhibit the polymerization of α and β tubulin | IC50 (K562 [20]): 32.3 ± 3.11 µM | IC50 (K562 [21]): 46.4 ± 4.27 µM | IC50 (FaDu [22]): 34.1 ± 1.79 µM

CC(c1cc2ccccc2s1)N(O)C(N)=O (stereo not drawn) [Zileuton]
LOX-5 mRNA expression level (LOX-5 mRNA; A431, with respect to control): 3.10 fold change | LOX-5 mRNA expression level (LOX-5 mRNA; FaDu, with respect to control): 2.96 fold change | LOX-5 mRNA expression level (LOX-5 mRNA; K562, with respect to control): 3.01 fold change | LOX-5 mRNA expression level (LOX-5 mRNA; [25]): 3.09 fold change | LOX-5 mRNA expression level (LOX-5 mRNA; PC-3, with respect to control): 2.22 fold change

O=c1[nH]cc(F)c(=O)[nH]1 [5-fluorouracil, reference compound]
reduction of EAC tumor formation (tumor growth inhibition) [23]: 98.39%

NCCC[C@](N)(C(=O)O)C(F)F [DFMO, α-difluoromethylornithine]
IC50 [24]: 7.54 ± 5.8 µM | ODC mRNA expression level (ODC mRNA; A431, with respect to control): 5.42 fold change | ODC mRNA expression level (ODC mRNA; A549, with respect to control): 4.24 fold change | ODC mRNA expression level (ODC mRNA; FaDu, with respect to control): 2.57 fold change | ODC mRNA expression level (ODC mRNA; K562, with respect to control): 4.07 fold change | ODC mRNA expression level (ODC mRNA; [25]): 3.67 fold change | ODC mRNA expression level (ODC mRNA; PC-3, with respect to control): 6.55 fold change
